Source: PMC6767236, “Selective Cannabinoid 2 Receptor Agonists as Potential Therapeutic Drugs for the Treatment of Endotoxin-Induced Uveitis” (Molecules, 2019)
In brackets after ≈: the same amount, converted by molar mass. Where two headings read alike, the source gives them in different places. Marks after values point to notes of the source that are not given here.

Legend:
[1] = Octanol/water distribution coefficient (logD)
[2] = mouse, * previously published, cited from earlier work; for T1/2 / Tmax: oral, HU308 5 mg/kg, others 3 mg/kg; for F: oral 3 mg/kg
mouse CB2R = mouse CB2R (Mus musculus, UniProt P47936); test: cAMP assay, mouse CB2R (mouse spleen homogenate); assay type: biochemical
Description: The effect of ligands on the forskolin-stimulated accumulation of cAMP was determined using the LANCE ULTRA cAMP kit as per the manufacturer’s instruction (Perkin-Elmer Life Sciences, Boston, MA, USA).
For mouse CB2R cAMP assays, mouse spleen was resuspended in 50 mM of Tris-HCl (pH 7.4), then homogenized with a Potter homogenizer and centrifuged at 1000× g for 10 min. The supernatants were incubated for 30 min with 1-methyl-3-isobutylxanthine (IBMX), then forskolin was added in the presence or absence of ligands. The supernatants were incubated for 30 min in ATP Regeneration Buffer (50 mM HEPES, pH 7.4, 10 mM phosphocreatine, 10 units/mL creatine phosphokinase, 10 μM GTP, 200 μM ATP, 10 mM MgCl2, 250 μM IBMX), and the reaction was stopped by adding lysis buffer. Time-resolved fluorescence was measured with a Victor V Multilabel counter (Perkin-Elmer Life Sciences, Boston, MA, USA).

human CB2R [3] = biological target: T1, human CB2R (Homo sapiens, UniProt P34972); conditions: cited from earlier work; for EC50: read-out: hCB2R: cAMP EC50; for hCB1R cAMP EC50/hCB2R cAMP EC50: functional selectivity
T1 construct: bgal (beta-galactosidase fragment of the PathHunter system, named only in the cell line's name); host or cells: CHO-K1 (CHOK1hCB2_bgal)

CYP2C9 = CYP2C9 (Homo sapiens, UniProt P11712); test: Cytochrome P450 inhibition assay, CYP2C9; assay type: in vitro ADME
in vivo = conditions: for AUCINF D: mouse, i.v., HU308 2 mg/kg, RO6871304 0.5 mg/kg
Description: Mouse Pharmacokinetic Profiles
Male C57Bl/6 mice (Charles River, Fra nce) were used to study the pharmacokinetics of CB 2R ligands after i.v. and p.o. administration. Animals were up to 12 weeks of age. All animal studies in this section were performed at Hoffmann-La Roche and approved by the Federal Food Safety and Veterinary Office of the Swiss Confederation. Test compounds were formulated according to respective protocols either by dissolution (i.v.) or as aqueous suspensions in a glass potter until homogeneity was achieved (p.o.; formulated as a solution in ethanol/cremophor EL/ 0.9% NaCl (5%/5%/90%)). Formulations were injected i.v. using a 30G needle in the lateral tail vein of mice using a volume of 50 μL in the dose indicated. For p.o. applications, animals were gavaged using a volume of 100 μL in the dose indicated. At the following time points blood was drawn into EDTA: 0.08, 0.25, 0.5, 1, 2, 4, 7 h (for p.o. the first time point was omitted). Six animals were used for each compound.
Animals were distributed randomly over the time course and at each time point, a volume of 100 μL of blood was taken. Quantitative plasma measurement of the compound was performed by LC-MS/MS analysis. Pharmacokinetic analysis was performed using Phoenix WinNonlin 6.4 software using a non-compartmental approach consistent with the route of administration. For assessment of the exposure, Cmax, Tmax, and area under the curve (AUC) were determined from the serum concentration profiles. Parameters (clearance, […], T1/2) were estimated using nominal sampling times relative to the start of each administration. Co (initial concentration) was extrapolated from the first concentration measured following i.v. administration. […]

human CB2R [4] = biological target: T1, human CB2R; conditions: cited from earlier work; for Ki: read-out: hCB2R: Ki
[5] = Kinetic lyophilization solubility assay; assay type: physicochemical; conditions: 0.05 M phosphate buffer, aqueous buffer, thermodynamic from solid; phosphate buffer pH 6.5
Description: The X-ray structure of CB2R complexed with the antagonist AM10257 (5zty) was used as a template to dock CB2R ligands. The docking experiments were performed with the software GOLD ([…]) with default settings. The best 10 docking poses for each compound were energy-minimized within the binding pocket using MOE ( molecular operating environment ver. 2014.09, Chemical Computing Group, Montreal, Canada) and examined visually to select the most reasonable docking mode with respect to molecular interactions and internal conformational strain. The final selection was based on checking consiste ncy with the available structure –activity relationship information.
Kinetic Lyophilization Solubility Assay
The solubility of a test compound in phosphate buffer at pH 6.5 from evaporated DMSO stock solution is measured over time, resulting in the kinetic solubility of the compound. Samples were prepared in duplicate from 10 mM DMSO stock solutions. […] The filtrate and its 1 :10 dilution were analyzed by direct UV measurement or by HPLC -UV. […]
Approximately 8.6 mg test compound per milliliter solvent/vehicle was stirred in HPLC vials (9 × 12 × 32 mm, Waters) at 350 rpm for 15 h. […] Addition of solid material was repeated up to 96 h or until residual solid particles could be detected. […] The filtrates were diluted in ethanol and analyzed for content by UPLC. […]

[6] = relative to 1 µM CP55940, * previously published
[7] = underlying data previously published
[8] = male, C57Bl/6, mouse, in vivo, iv
[9] = male, C57Bl/6, mouse, in vivo, iv, 2 mg/kg
[10] = read-out: mouse CB2R: cAMP EC50
[11] = [3H]-CP55940 displacement, * previously published

T1 sequence (P34972 whole entry, the tested form may be a part): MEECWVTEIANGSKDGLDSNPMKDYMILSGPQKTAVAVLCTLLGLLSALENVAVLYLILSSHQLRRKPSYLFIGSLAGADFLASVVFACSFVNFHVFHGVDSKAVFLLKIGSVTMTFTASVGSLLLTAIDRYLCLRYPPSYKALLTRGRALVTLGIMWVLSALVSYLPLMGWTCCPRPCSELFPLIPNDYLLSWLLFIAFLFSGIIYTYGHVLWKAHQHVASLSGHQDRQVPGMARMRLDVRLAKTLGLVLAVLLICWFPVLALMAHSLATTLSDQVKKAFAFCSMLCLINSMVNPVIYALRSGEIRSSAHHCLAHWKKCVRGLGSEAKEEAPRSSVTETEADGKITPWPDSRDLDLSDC
Sequence of CYP2C9 (P11712 whole entry): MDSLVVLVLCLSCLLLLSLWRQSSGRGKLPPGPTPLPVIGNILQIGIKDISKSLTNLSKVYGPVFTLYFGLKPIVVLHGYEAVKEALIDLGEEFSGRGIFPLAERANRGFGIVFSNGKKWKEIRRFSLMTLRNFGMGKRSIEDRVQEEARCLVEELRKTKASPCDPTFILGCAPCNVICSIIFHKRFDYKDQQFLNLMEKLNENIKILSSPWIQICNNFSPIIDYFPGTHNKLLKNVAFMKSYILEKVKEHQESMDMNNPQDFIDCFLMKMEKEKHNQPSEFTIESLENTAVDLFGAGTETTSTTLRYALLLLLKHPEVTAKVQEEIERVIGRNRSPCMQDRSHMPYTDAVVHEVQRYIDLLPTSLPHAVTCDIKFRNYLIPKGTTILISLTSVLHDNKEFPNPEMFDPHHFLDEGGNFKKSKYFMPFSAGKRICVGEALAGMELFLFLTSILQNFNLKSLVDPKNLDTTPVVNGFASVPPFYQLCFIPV
Sequence of mouse CB2R (P47936 whole entry): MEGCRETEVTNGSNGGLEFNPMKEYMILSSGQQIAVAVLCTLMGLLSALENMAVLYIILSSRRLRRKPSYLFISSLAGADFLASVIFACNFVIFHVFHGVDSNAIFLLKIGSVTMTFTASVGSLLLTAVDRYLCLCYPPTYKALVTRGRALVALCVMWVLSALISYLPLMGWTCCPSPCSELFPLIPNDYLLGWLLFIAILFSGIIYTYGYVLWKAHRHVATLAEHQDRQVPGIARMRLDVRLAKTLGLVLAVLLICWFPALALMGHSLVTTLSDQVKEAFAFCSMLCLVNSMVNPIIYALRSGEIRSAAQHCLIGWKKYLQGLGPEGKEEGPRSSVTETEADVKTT

CCCCCCC(C)(C)c1cc(OC)c([C@H]2C=C(CO)[C@H]3C[C@@H]2C3(C)C)c(OC)c1 [HU308, {(1S,4S,5S)-4-[2,6-Dimethoxy-4-(2-methyloctan-2-yl)phenyl]-6,6-dimethylbicyclo[3.1.1]hept-2-en-2-yl}methanol, reference compound]
logD ([1]; octanol/water, pH 7.4): 4.29
T1/2 [2]: 3.3 h
Tmax [2]: 0.5 h
EC50 (mouse CB2R): 6 nM
mouse CB2R: cAMP efficacy (mouse CB2R): 99%
hCB2R: cAMP efficacy (human CB2R [3]; [6]): 98%
functional behaviour in hCB2R cAMP assay (human CB2R [3]; [7]): full agonists
IC50 (CYP2C9): > 50000 nM
half-life (in vivo; [8]): 2.15 h
Vd (in vivo; [9]): 2.9 L/kg
clearance (in vivo; [9]): 36.6 mL/min/kg
AUCINF D (in vivo): 456 ng·kg·h/mL/mg

CCCCCCC(C)(C)c1cc(OC)c(C2=C[C@H]3CC[C@]2(CO)C3(C)C)c(OC)c1 [HU910, {(1S,4R)-2-[2,6-dimethoxy-4-(2-methyloctan-2-yl)phenyl]-7,7-dimethylbicyclo[2.2.1]hept-2-en-1-yl}methanol, reference compound]
Ki (human CB2R [4]): 43 nM
LogD (at pH 7.4) [1]: out of range
T1/2 [2]: 5.2 h
Tmax [2]: 1 h
mouse CB2R: cAMP efficacy (mouse CB2R): 99%
EC50 (mouse CB2R; [10]): 3 nM
functional behaviour in hCB2R cAMP assay (human CB2R [3]): full agonists
hCB2R: cAMP efficacy (human CB2R [3]): 4, 98 * %
EC50 (human CB2R [3]): 4 nM
IC50 (CYP2C9; read-out: IC50 CYP2C9): > 50000 nM

CNC(=O)[C@@H](NC(=O)c1cc(OCC2(C)COC2)c(C2CC2)cn1)C(C)(C)C [RO6851228, 5-Cyclopropyl-N-[(2S)-3,3-dimethyl-1-(methylamino)-1-oxobutan-2-yl]-4-[(3-methyloxetan-3-yl)methoxy]pyridine-2-carboxamide]
Ki (human CB2R [4]; [11]): 45 nM
hCB1R Ki/hCB2R Ki (human CB2R [4]; binding selectivity, * previously published): 147 *
F [2]: 31%
T1/2 [2]: 1.17 h
Tmax [2]: 0.25 h
hCB2R cAMP EC50/mouse CB2R cAMP EC50 ratio (mouse CB2R): 7
EC50 (human CB2R [3]; * previously published): 26 nM
hCB1R cAMP EC50/hCB2R cAMP EC50 (human CB2R [3]; * previously published): >383 *
hCB2R: cAMP efficacy (human CB2R [3]; [6]): −159%
functional behaviour in hCB2R cAMP assay (human CB2R [3]; [7]): inverse agonist
IC50 (CYP2C9; read-out: IC50 CYP2C9): > 50000 nM
solubility kinetic at 15 h [5]: 174 ± 47 µg/mL (≈ 447 µM)

Cc1nc([C@](C)(CC2CC2)NC(=O)c2cc(OCC(F)(F)F)c(C3CC3)cn2)no1 [RO6871085, 5-Cyclopropyl-N-[(2S)-1-cyclopropyl-2-(5-methyl-1,2,4-oxadiazol-3-yl)propan-2-yl]-4-(2,2,2-trifluoroethoxy)pyridine-2-carboxamide]
Ki (human CB2R [4]; [11]): 76 nM
F [2]: 68%
T1/2 [2]: 8.42 h
Tmax [2]: 0.5 h
EC50 (human CB2R [3]; * previously published): 8 nM
hCB1R cAMP EC50/hCB2R cAMP EC50 (human CB2R [3]; * previously published): 174 *
hCB2R: cAMP efficacy (human CB2R [3]; [6]): 88%
functional behaviour in hCB2R cAMP assay (human CB2R [3]; [7]): full agonists
IC50 (CYP2C9; read-out: IC50 CYP2C9): 8000 nM
solubility kinetic at 15 h [5]: 4.2 ± 0.1 µg/mL (≈ 9.9 µM)

CC(C)(C)c1nc(N2CC[C@H](O)C2)c2nnn(Cc3nnnn3C3CC3)c2n1 [RO6871304, (3S)-1-{5-tert-butyl-3-[(1-cyclopropyl-1H-tetrazol-5-yl)methyl]-3H-[1,2, 3]triazolo[4,5-d]pyrimidin-7-yl}pyrrolidin-3-ol]
mouse CB2R: cAMP efficacy (mouse CB2R): 101%
EC50 (mouse CB2R; [10]): 0.5 nM
EC50 (human CB2R [3]; * previously published): 1 nM
hCB2R: cAMP efficacy (human CB2R [3]; [6]): 102%
functional behaviour in hCB2R cAMP assay (human CB2R [3]; [7]): full agonists
IC50 (CYP2C9; read-out: IC50 CYP2C9): 16000 nM
half-life (in vivo; [8]): 0.32 h
AUCINF D (in vivo): 456 ng·kg·h/mL/mg
